Data on nine compounds can be found in PMC7084598, “Design, Synthesis, and Biological Evaluation of Two Series of Novel A-Ring Fused Steroidal Pyrazines as Potential Anticancer Agents” (International Journal of Molecular Sciences, 2020).

Data set [1] relates to NCI-H460. On the set-up: method as in PMID 14695204, PMID 26042639. The conditions noted are these: cited from earlier work.
Data set [2] relates to DU-145. Also noted: method as in PMID 14695204, PMID 26042639. The conditions noted are these: cited from earlier work.
The subject of data set [3] is MCF-7. Also noted: method as in PMID 14695204, PMID 26042639. To be noted: cited from earlier work.
For data set [4], the system named is MCF-7 (breast carcinoma). Briefly: CCK-8 antiproliferative assay, MCF-7. It is filed as cell-based. To be noted: Homo sapiens, MCF7, 48 h, CCK8, mean of three independent experiments, NA = no activity, read-out: Inhibitory Ratio (Mean% ± SD%) MCF-7. Here is the method: (§1) All the thirty-six target derivatives (5a–5f, 10a–10o, and 12a–12o) were screened for antiproliferative activities against three human cancer cell lines (MCF-7, PC-3, and HepG2) and cytotoxicity on a normal human cell (THLE-2) at the concentration of 20 μM by using the CCK8 assay.
(§2) Thirty-six novel steroidal A-ring fused pyrazine hybrids were evaluated by Cell Counting Kit-8 (CCK-8) assays, to evaluate their in vitro antiproliferative activities on three human cancer cell lines and one normal cell line: MCF-7 (breast carcinoma), PC-3 (prostate carcinoma), HepG2 (liver hepatocellular carcinoma), and THLE-2 ([…]), with 5-fluorouracil as the positive control.
(§3) Cells (3 × 10^3 cells per well) seeded into 96-well plates (Costar, Shanghai, China) were incubated with Ham’s F-12K containing various concentrations of steroidal pyrazines (5a–5f, 10a–10o, and 12a–12o) for 48 h at 37 °C and 5% COThen, 10 μL of CCK-8 reagent (Beyotime, Shanghai, China) dissolved in PBS (Phosphate buffered saline) was added per well, and continuously incubated at 37 °C for 1 h. Finally, the absorbance of samples taken from each well was measured on a microplate reader at 450 nm. The antiproliferative activities were expressed as inhibitory activity and IC50 values calculated using GraphPad Software 5.0 (GraphPad Software, San Diego, CA, USA), which were the mean values of three independent tests and are shown in Table 1 and Table 2, respectively. The formula used for cell inhibitory rates was (1 - sample absorption/vehicle absorption) × 100%.
(In general: Tetrazolium assays rely on reduction of a dye to a coloured formazan, in cell work by metabolically active cells.)

Data set [5] deals with HepG2 (liver hepatocellular carcinoma). Nature of the data set: CCK-8 antiproliferative assay, HepG2. It is filed as cell-based. To be noted: Homo sapiens, 48 h, CCK8, mean of three independent experiments, NA = no activity, read-out: Inhibitory Ratio (Mean% ± SD%) HepG2. Here is the method:
as §1, §2, §3

Data set [6] relates to PC-3 (prostate carcinoma). Briefly: CCK-8 antiproliferative assay, PC-3. It is filed as cell-based, human. To be noted: for inhibition at 20 µM: 48 h, CCK8, mean of three independent experiments, NA = no activity, read-out: Inhibitory Ratio (Mean% ± SD%) PC-3. The method, then: as §1, §2, §3
The test system of data set [7] is THLE-2 (normal human cells). Nature of the data set: CCK-8 cytotoxicity on normal cells, THLE-2. The conditions noted are these: for inhibition at 20 µM: 48 h, CCK8, NA = no activity, read-out: Inhibitory Ratio (Mean% ± SD%) THLE-2. Type of data set: cell-based. The method, then: as §1, §2, §3
For data set [8], the system named is PC-3 cells. Nature of the data set: Cell apoptosis assay, Annexin V-FITC/PI dual staining, flow cytometry. Type of data set: cell-based, human. To be noted: for Percentage of Cell Apoptosis (%) Normal Living Cell: 48 h (Q1-LL); for Percentage of Cell Apoptosis (%) Early Apoptosis: 48 h (Q1-LR); for Percentage of Cell Apoptosis (%) Necrosis: 48 h (Q1-UL); for Percentage of Cell Apoptosis (%) Late Apoptosis: 48 h (Q1-UR); for apoptosis ratio (early and late apoptotic ratios): 48 h, blank control 5.77%. The method, then:
To clarify the effect of steroidal pyrazines on the induction of apoptosis in PC-3 cells, a flow cytometry assay with Annexin-V-FITC/PI double staining was implemented.
The cell apoptosis was evaluated with Annexin V-FITC/PI dual staining (Beyotime, Shanghai, China), as previously described. PC-3 cells (1 × 10^6 cells per well) seeded into 6-well plates (Costar, Shanghai, China) were incubated with Ham’s F-12K containing various concentrations (0.2, 1.0, and 5.0 μM) of compound 12n for 48 h. The biological samples were analyzed using flow cytometry (CytoFLEX, CA, USA).

In data set [9] the test system is PC-3 cells. Briefly: Giemsa staining for morphological features of apoptosis. It is filed as cell-based, human. To be noted: 1.0 and 4.0 μM, 48 h. The method, then:
After being treated with 12n at different concentrations (1.0 and 4.0 μM), the cells were stained with Giemsa stain. […] Other morphological changes, such as the loss of volume and deformation of a regular appearance, were also found.
Giemsa stain was used to assess the morphological changes of PC-3 cells, according to the standard Giemsa procedure established by the supplier (Solarbio, Beijng, China). Briefly, PC-3 cells were plated at 3 × 10^3 cells/well into a 96-well plates. PC-3 cells after treatment with 12n for 48 h were fixed with methanol (75%) for 10 min at room temperature. Then, the cells were stained with Giemsa (diluted with phosphate buffer), observed, and photographed under the microscope at 200 × (Olympus Corporation, Tokyo, Japan ).

Data set [10] deals with PC-3 cells. Briefly: Cell cycle assay, PI single staining, flow cytometry. Type of data set: cell-based, human. The conditions noted are these: for Percentage of Cell Cycles (%) G1 / Percentage of Cell Cycles (%) S / Percentage of Cell Cycles (%) G2/M: 48 h; for Percentage of Cell Cycles (%) G2/M: control 15.69%. The method, then: To further clarify the effects of A-ring fused steroidal pyrazines on cell growth, the cell cycle distribution of PC-3 cells was investigated through treatment with compound 12n at concentration gradients for 48 h (Figure 5 and Table 5).
The cell cycle was examined by PI single staining (Beyotime, Shanghai, China), as previously described. […] The samples were analyzed using flow cytometry for DNA content (CytoFLEX, California, United States).
On the technique in general: In flow cytometry, cells or beads pass a laser one at a time.

Data set [11] deals with P338. On the set-up: method as in PMID 14695204, PMID 26042639. The conditions noted are these: cited from earlier work.

The term GI50 denotes the concentration at which growth is held to half of that of the control. On to `C[C@@H]1[C@]2(O[C@H]3C=C4[C@@H]5CC[C@H]6Cc7nc8c(nc7C[C@]6(C)[C@H]5C[C@@H](O)[C@]4(C)[C@]31O)C[C@@H]1CC[C@H]3C4=CC[C@@H]5[C@H](C)[C@@]6(OC[C@]45C(=O)C[C@@H]3[C@@]1(C)C8)OC(C)(C)C[C@H]6O)O[C@](C)(CO)C[C@H]2O` [Cephalostatin 1], for which the values for the concentration for 50% growth inhibition (GI50) in [1], in [2] and in [3] were 0.044 nM, 0.11 nM and 0.099 nM, respectively.

In general, melting point refers to the temperature, or range, at which the solid turns liquid. `CC1(C)C2=CCC3C(CC[C@@]4(C)C3CC[C@@H]4C(=O)O)[C@@]2(C)Cc2nccnc21` (stereo partly drawn) [Compound 5a] registered a melting point of 270 to 292 °C. In addition, the inhibition at 20 µM in data set [4] stood at 3.09 ± 1.05%. The inhibition at 20 µM in data set [5] is 17.9 ± 1.16%. Besides, in data set [6] (Homo sapiens), the inhibition at 20 µM came out at 25.1 ± 2.64%.

`CC(O)C1CCC2C3CC=C4C(C)(C)c5nccnc5CC4(C)C3CCC12C` (stereo not drawn) [Compound 10a]: the melting point was in the range of 150 to 152 °C. The inhibition at 20 µM in [4] was found to be 4.99 ± 3.09%. Moreover, in data set [5], the inhibition at 20 µM was found to be 6.2 ± 5.25%.

On to `Cc1ccc(NC(=O)c2cnc3c(n2)C(C)(C)C2=CCC4C(CCC5(C)C(C(C)O)CCC45)C2(C)C3)cc1` (stereo not drawn) [Compound 12d], for which the inhibition at 20 µM in data set [7] came out at 18.2 ± 6.76%; in data set [4], 25 ± 3.43%; in data set [5] it was 16.3 ± 3.72%; in [6] (Homo sapiens), 22.6 ± 2.25%.

`CC(O)C1CCC2C3CC=C4C(C)(C)c5nc(C(=O)Nc6ccccc6F)cnc5CC4(C)C3CCC12C` (stereo not drawn) [Compound 12e]: the inhibition at 20 µM in data set [7] was determined as 14 ± 1.47%; in [4] it was 3.28 ± 1.9%; in data set [5], 17.6 ± 3.19%; in [6] (Homo sapiens) it was 47 ± 3.47%.

Turning to `COc1ccccc1NC(=O)c1cnc2c(n1)C(C)(C)C1=CCC3C(CCC4(C)C(C(C)O)CCC34)C1(C)C2` (stereo not drawn) [Compound 12k], the inhibition at 20 µM was determined as 4.71 ± 1.25% in data set [7], 17.7 ± 1.01% in [4], 12.9 ± 0.43% in data set [5] and 32.9 ± 1.19% in data set [6] (Homo sapiens).

`COc1ccc(NC(=O)c2cnc3c(n2)C(C)(C)C2=CCC4C(CCC5(C)C(C(C)O)CCC45)C2(C)C3)cc1` (stereo not drawn) [Compound 12m]: the inhibition at 20 µM in data set [7] was 5.68 ± 1.9%; in data set [4], 20 ± 2.33%; in data set [5] it was 20.3 ± 3.6%; in data set [6] (Homo sapiens) it was 30 to 60%.

The term IC50 denotes the concentration that gives 50% inhibition. Read a low IC50 as inhibition by little substance. On to `CC(O)C1CCC2C3CC=C4C(C)(C)c5nc(C(=O)NCCc6ccccc6)cnc5CC4(C)C3CCC12C` (stereo not drawn) [Compound 12n], for which the inhibition at 20 µM is 19.3 ± 1.81% in data set [7], 40.8 ± 1.72% in data set [4], 55.4 ± 1% in [5] and more than 60% in [6] (Homo sapiens). The IC50 in data set [7] (CCK-8, 48 h) was determined as 26700 nM; in [6] (Homo sapiens, CCK-8, 48 h, triplicate) it was 930 ± 20 nM. Also, the “Percentage of Cell Apoptosis (%) Normal Living Cell” value in data set [8] (PC-3, 0.2 μM) is recorded as 89.20%; in data set [8] (PC-3, 1.0 μM) it was 73.17%; in [8] (PC-3, 5.0 μM), 54.13%. Moreover, the “Percentage of Cell Apoptosis (%) Early Apoptosis” value in data set [8] (PC-3, 0.2 μM) was 0.76%; in [8] (PC-3, 1.0 μM), 4.55%; in data set [8] (PC-3, 5.0 μM), 3.64%. Besides, the “Percentage of Cell Apoptosis (%) Necrosis” value in [8] (PC-3, 0.2 μM) turned out to be 2.15%; in [8] (PC-3, 1.0 μM) it was 3.21%; in data set [8] (PC-3, 5.0 μM), 6.30%. For the same compound, the “Percentage of Cell Apoptosis (%) Late Apoptosis” value was 7.90% in data set [8] (PC-3, 0.2 μM); 19.07% in data set [8] (PC-3, 1.0 μM); 35.93% in data set [8] (PC-3, 5.0 μM). Further, the “apoptosis ratio (early and late apoptotic ratios)” value is 8.66% in data set [8] (PC-3, 0.2 μM); 23.62% in data set [8] (PC-3, 1.0 μM); 39.57% in data set [8] (PC-3, 5.0 μM). Moreover, the “Morphological changes of PC-3 cells (Giemsa stain)” value in data set [9] is on record as “could cause the morphological change of PC-3 cells in a dose-dependent manner”. For the same compound, the “SI: Selectivity index = (IC50 of THLE-2)/(IC50 of PC-3)” value in [6] (THLE-2 vs PC-3) was 28.71. In addition, the “Percentage of Cell Cycles (%) G1” value in data set [10] (PC-3, 0.2 μM) is on record as 46.65%; in data set [10] (PC-3, 1.0 μM), 23.03%; in data set [10] (PC-3, 5.0 μM), 55.73%. Besides, the “Percentage of Cell Cycles (%) S” value in data set [10] (PC-3, 0.2 μM) was 37.26%; in [10] (PC-3, 1.0 μM) it was 30.78%; in data set [10] (PC-3, 5.0 μM), 0.00%. The “Percentage of Cell Cycles (%) G2/M” value was 16.09% in data set [10] (PC-3, 0.2 μM); 46.19% in data set [10] (PC-3, 1.0 μM); 44.27% in data set [10] (PC-3, 5.0 μM). Besides, the “percentage of cells in the G2/M phase” value in data set [10] (PC-3, 5.0 μM) turned out to be 44.27%.

With Ritterazine B, the “ED50 (nM) for P338” value in data set [11] is 0.17 nM.
